PMC5008636, “Phosphatidylserine and Phosphatidylethanolamine Bind to Protein Z Cooperatively and with Equal Affinity” (PLoS ONE, 2016)
“Also recorded” adds a separate entry of the source. Read-outs that look alike come from different tables or passages of the source.

Tests used:
human fXa = human fXa (Homo sapiens, UniProt P00742); assay: FXa inhibition assay: AT-mediated inhibition of fXa amidolytic activity (S2765); type: biochemical; conditions: 40 nM PZ, 3 μM AT, no membrane
Protocol: Amidolytic activity of human fXa was measured in an assay mixtures containing 5 nM fXa, 3 μM AT, 50 μM phospholipid membrane (DOPS:DOPC, DOPE:DOPC, and only DOPC) and 40 nM PZ in buffer (50 mM Tris, 175 mM NaCl, 0.6% PEG, 5 mM CaCl2, pH 7.4 using the substrate S2765 according to the method described in [31]. Briefly, mixtures (150 μl) containing fXa in appropriate buffer were incubated with or without PZ and with or without membrane at 37°C in the wells of a microtiter plate for 5 mins before adding AT to that. 1 mM of substrate S2765 was added then and initial rate of substrate cleavage was determined by measuring the absorbance at 405 nm using the plate reader (Molecular Devices, CA, USA). Factor Xa activity was determined by comparing the initial rate of substrate cleavage with a standard curve produced with various concentrations of factor Xa in the same buffer conditions.

PZ [1] = molecular target: T1, PZ (Homo sapiens, UniProt P22891); assay: Binding of soluble lipids to PZ by intrinsic tryptophan fluorescence; conditions: for effect of pre-incubation of PZ with C6PS on affinity of PZ towards the lipid: saturating amount of C6PS; for lower binding affinity to PZ compared to PS and PE: soluble lipids, 5 mM Ca2+; for Kd in 1 mM Ca2+ relative to Kd in 5 mM Ca2+: 1 mM vs 5 mM Ca2+; for binding to PZ with excess EDTA: 5 mM EDTA in the assay buffer
T1 construct: purchased Enzyme Research Laboratories (South Bend, IN, USA)
T1 sequence (P22891 41-400): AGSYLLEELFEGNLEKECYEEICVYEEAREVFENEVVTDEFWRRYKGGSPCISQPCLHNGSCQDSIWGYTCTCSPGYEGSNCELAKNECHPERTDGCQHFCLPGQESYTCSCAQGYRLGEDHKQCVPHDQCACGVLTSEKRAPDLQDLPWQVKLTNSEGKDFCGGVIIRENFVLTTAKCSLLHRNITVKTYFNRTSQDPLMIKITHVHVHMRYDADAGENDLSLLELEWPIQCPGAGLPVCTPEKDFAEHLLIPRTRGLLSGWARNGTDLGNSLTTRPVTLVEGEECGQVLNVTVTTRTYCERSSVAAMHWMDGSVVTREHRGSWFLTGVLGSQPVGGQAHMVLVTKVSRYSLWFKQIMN
Protocol: (§1) PZ intrinsic tryptophan fluorescence as a function of increasing concentration of soluble phospholipid was measured as described in [12] using a FluoroLog spectrofluorometer (Horiba Jobin-Yvon Inc., Edison, NJ) with an excitation wavelength of 285nm (band-pass 4 nm); emission was recorded at 340 nm (band-pass 4 nm). Each experiment was performed below the critical micelle concentration (CMC) of the soluble lipid. The CMC was determined under experimental conditions following pyrene fluorescence as a function of increasing lipid concentration. Apparent dissociation constants for binding of PZ to soluble lipids were obtained by fitting the experimental data to a simple, single-site binding model, using the assumption that [C6PL]free ≈ [C6PL]total

PZ [2] = molecular target: T1, PZ; assay: Equilibrium dialysis of soluble C6PS/C6PE binding to PZ; conditions: for Stoichiometry (Average) of lipid binding to PZ / ΔP (difference in phosphate concentration): 250 μM lipid, 5 mM Ca2+; for Stoichiometry (Average) of lipid binding to PZ: PZ 15, 20, 30 μM, calculated from Eq (1); for binding to PZ in equilibrium dialysis without Ca2+: absence of Ca2+ and presence of EDTA in the buffer
Protocol: Experiments were performed using 2.0-ml Teflon dialysis cells (Harvard Apparatus, Holliston, MA) with the two cells separated by a 2000 Da molecular weight cut-off membrane. Both chambers contained equal amount of […], and one chamber contained the appropriate amount of PZ. Both chambers were allowed to equilibrate with each other at room temperature for 24 h while being rotated horizontally at 20 rpm. […] where, n is the stoichiometry of binding, [L] is the concentration of phospholipid added to the chamber, [P] is the protein concentration present in one half of the chamber, and Kd is the binding constant obtained from fluorescence experiments. Total protein concentration, [P], must be large enough to detect a measurable difference in phosphate concentration between the two chambers. In a recent analysis of soluble lipid binding to two non-equivalent sites on fIXa, it was shown that a narrow protein concentration range was sufficient to obtain stoichiometries for each site. […] For each protein concentration, three aliquots were withdrawn and phosphate concentrations were measured.

[3] = Critical micelle concentration by pyrene fluorescence; type: physicochemical; conditions: under experimental conditions
Protocol: as §1
Since pyrene is hydrophobic, partitioning into the interior of a micelle is manifested as a sharp increase in the ratio of the intensity of the pyrene emissions at 373 and 383 nm.

fXa = molecular target: fXa; design: method as in PMID 21859710; conditions: soluble lipid; read-out: Kd for binding of fXa; cited from earlier work
[4] = 150 nM PZ, 5 mM CaCl2, pH 7.5, 25° C, no pre-incubation lipid, single-site binding model, read-out: apparent Kd for binding to PZ
[5] = 1 mM Ca2+, read-out: binding Kd to PZ in presence of 1 mM Ca2+

human fXa, sequence (P00742 41-179 limits assumed): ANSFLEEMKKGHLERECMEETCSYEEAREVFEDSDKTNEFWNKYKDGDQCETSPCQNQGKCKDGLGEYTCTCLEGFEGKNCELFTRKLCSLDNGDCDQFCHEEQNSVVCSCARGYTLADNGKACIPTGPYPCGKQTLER
human fXa, sequence (P00742 235-488 limits assumed): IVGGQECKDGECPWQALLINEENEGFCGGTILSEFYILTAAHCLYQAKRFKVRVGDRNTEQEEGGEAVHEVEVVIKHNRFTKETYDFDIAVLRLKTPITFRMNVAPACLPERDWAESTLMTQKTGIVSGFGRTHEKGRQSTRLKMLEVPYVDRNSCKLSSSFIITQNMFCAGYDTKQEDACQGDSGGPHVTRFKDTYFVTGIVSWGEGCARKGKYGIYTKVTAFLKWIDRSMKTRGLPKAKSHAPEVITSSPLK

PZ: human Protein Z, 62 kDa vitamin K-dependent cofactor
effect of inclusion of PZ on AT inhibition of fXa (human fXa): essentially no effect

CCCCCC(=O)OC[C@H](COP(=O)(O)O)OC(=O)CCCCC [C6PA]
Kd (PZ [1]; [4]): 165 ± 25 µM
effect of pre-incubation of PZ with C6PS on affinity of PZ towards the lipid (PZ [1]): did not alter the affinity; also recorded: did not enhance the affinity
lower binding affinity to PZ compared to PS and PE (PZ [1]): ~ 3 fold

CCCCCC(=O)OC[C@H](COP(=O)(O)OC[C@H](N)C(=O)O)OC(=O)CCCCC [C6PS, 1,2-dicaproyl-sn-glycero-3-phospho-L-serine]
Stoichiometry (Average) of lipid binding to PZ (PZ [2]): 2.0 (1.96 ± 0.1)
ΔP (difference in phosphate concentration) (PZ [2]; [PZ] 15 μM): 27.6 ± 0.2
ΔP (difference in phosphate concentration) (PZ [2]; [PZ] 20 μM): 32.3 ± 0.09
ΔP (difference in phosphate concentration) (PZ [2]; [PZ] 30 μM): 45.3 ± 0.1
binding to PZ in equilibrium dialysis without Ca2+ (PZ [2]): did not detect any binding
critical micelle concentration (CMC) [3]: 950 µM
Kd (PZ [1]; [4]): 47.7 ± 10.7 µM
Kd (PZ [1]; [5]): 165 µM
Kd in 1 mM Ca2+ relative to Kd in 5 mM Ca2+ (PZ [1]): about 3.5 fold
binding to PZ with excess EDTA (PZ [1]): did not observe any binding
Kd (fXa): 86 µM

CCCCCC(=O)OC[C@H](COP(=O)(O)OCCN)OC(=O)CCCCC [C6PE, 1,2-dicaproyl-sn-glycero-3-phospho-L-ethanolamine]
Stoichiometry (Average) of lipid binding to PZ (PZ [2]): 2.0 (1.93 ± 0.2)
ΔP (difference in phosphate concentration) (PZ [2]; [PZ] 15 μM): 28.9 ± 0.08
ΔP (difference in phosphate concentration) (PZ [2]; [PZ] 20 μM): 31.8 ± 0.2
ΔP (difference in phosphate concentration) (PZ [2]; [PZ] 30 μM): 42.8 ± 0.6
binding to PZ in equilibrium dialysis without Ca2+ (PZ [2]): did not detect any binding
critical micelle concentration (CMC) [3]: 1200 µM
Kd (PZ [1]; 150 nM PZ, 5 mM CaCl2, pH 7.5, 25° C, no pre-incubation lipid, single-site binding model, listed as PE, read-out: apparent Kd for binding to PZ): ~48 µM
Kd (PZ [1]; [4]): 47.6 ± 8.2 µM
Kd (PZ [1]; [5]): 172 µM
Kd in 1 mM Ca2+ relative to Kd in 5 mM Ca2+ (PZ [1]): about 3.5 fold
binding to PZ with excess EDTA (PZ [1]): did not observe any binding
Kd (fXa): 91 µM

CCCCCC(=O)OC[C@H](COP(=O)(O)OCC(O)CO)OC(=O)CCCCC (stereo partly shown) [C6PG]
Kd (PZ [1]; [4]): 131 ± 39 µM
effect of pre-incubation of PZ with C6PS on affinity of PZ towards the lipid (PZ [1]): did not alter the affinity; also recorded: did not enhance the affinity
lower binding affinity to PZ compared to PS and PE (PZ [1]): ~ 3 fold

CCCCCC(=O)OC[C@H](COP(=O)([O-])OCC[N+](C)(C)C)OC(=O)CCCCC [C6PC]
Kd (PZ [1]; [4]): 129 ± 32 µM
effect of pre-incubation of PZ with C6PS on affinity of PZ towards the lipid (PZ [1]): did not alter the affinity; also recorded: did not enhance the affinity
lower binding affinity to PZ compared to PS and PE (PZ [1]): ~ 3 fold

CCCCCC(=O)OC[C@H](COP(=O)(O)OC[C@@H](N)C(=O)O)OC(=O)CCCCC [C6(D)PS]
Kd (PZ [1]; [4]): 911 ± 300 µM
